Assay results: patent publication US12570696B2, “Tumor-specific polypeptide sequence and use thereof” (SHENZHEN GINO BIOTECHNOLOGY CO., LTD., priority 2019, dated 2026)
Where “and” joins values, the source holds several entries; their conditions need not be identical. Identical values can stand only once.

Columns and labels:
[1] = system: HCC827 subcutaneous tumor model; assay: Polypeptide vaccine in mouse subcutaneous transplanted tumor model; assay type: in vivo, NOD/SCID mice; settings: polypeptide + Freund's adjuvant, 4 immunizations, compared with wild-type polypeptide group and adjuvant group, FIG. 4
Text: (§1) This model was used to verify the tumor control effect of the polypeptide pharmaceutical combination, the antigen-presenting cell, and the vaccine proposed by the present disclosure. • 1. The encoding gene of each polypeptide was introduced by lentivirus transfection, and the recombinant lentivirus expressing the above-mentioned mutant polypeptide or a variant thereof was constructed and packaged. • 2. Construction of human-derived lung cancer cell line expressing the polypeptides
(§2) The human lung cancer cell line HCC827 was purchased from ATCC (No: CRL-2868), and its HLA subtype was HLA-A*1101 positive. Cells were cultured in DMEM medium containing 10% fetal bovine serum, 100 U/mL penicillin and streptomycin, in an incubator at 37° C., 5% CO2. […]
(§3) The established human lung cancer cell line was cultured in DMEM medium containing 10% fetal bovine serum, 100 U/mL penicillin and streptomycin, in an incubator at 37° C., 5% CO2. […] The subcutaneous tumor model NOD/SCID mice with immune reconstitution for 4 weeks were treated with DC vaccine, and the tumor volumes were recorded every 3 to 4 days. […]
The first immunization dosage of the polypeptide of each group was […] per mouse. […] After the injection, the vital signs of the mice were observed, and the vertical and horizontal sizes of the tumor were measured with a vernier caliper every 3 to 4 days. […]

[2] = system: HCC827 subcutaneous tumor model; assay: Polypeptide-specific DC-CTL vaccine in mouse subcutaneous transplanted tumor model; assay type: in vivo, NOD/SCID mice; settings: polypeptide-activated CTLs reinfused through the tail vein; compared with blank polypeptide and wild-type polypeptide groups; FIG. 6
Text: as §1, §2
The established human lung cancer cell line was cultured in DMEM medium containing 10% fetal bovine serum, 100 U/mL penicillin and streptomycin, in an incubator at 37° C., 5% CO2. […] The subcutaneous tumor model NOD/SCID mice with immune reconstitution for 4 weeks were treated with DC vaccine, and the tumor volumes were recorded every 3 to 4 days.
The PBLs collected in Example 9 were sorted by magnetic beads to obtain CD8^+ T cells. […] The culture medium was incubated with 500 IU/ml IL-2 and 50 ng/ml IL-7, in an incubator at 37° C. with 5% CO2, and the cells were counted after 1 week of culture. […]

[3] = system: HCC827 subcutaneous tumor model; assay: DC polypeptide vaccine in mouse subcutaneous transplanted tumor model; assay type: in vivo, NOD/SCID mice; settings: polypeptide-loaded DC cells, intradermal, 2 injections; compared with wild-type and blank polypeptide-loaded DC groups; FIG. 5
Text: as §1
as §2, with “CO2. The packaged lentivirus was transfected into the HCC827 cell line, and antibiotic puromycin was used to continuously screen the surviving HCC827 cell line, and finally the HCC827 cell line expressing the polypeptides was established. • 3. NOD SCID mouse human immune reconstitution” for “CO2.”
as §3

[4] = system: CD8+ T cells; assay: ELISPOT verification of activation of CD8+ T cell immune response (IFN-gamma secretion); assay type: cell-based, human
Experimental: (§4) The peripheral blood mononuclear cells (PBMCs) were collected from the volunteers who were positive for the corresponding subtype of the polypeptide. For 2×10^7 PBMCs, mononuclear cells were separated by using the adherent method (adhered for 3 h), and CD8^+ T cells were isolated by using CD8 magnetic beads. The adherent mononuclear cells were induced to immature DC cells by using GM-CSF (1000 U/ml) and IL-4 (1000 U/ml). Then, the adherent cells were induced into polypeptide-specific mature DC cells by IFN-gamma (100 U/ml), LPS (10 ng/ml), and the respective polypeptides. The obtained polypeptide-specific mature DC cells were co-cultured with volunteers' CD8^+ T cells, and IL-21 was added. After 3 days, IL-2 and IL-7 were supplemented. Thereafter, IL-2 and IL-7 were supplemented on day 5 and day 7, and on day 10, the co-cultured cells were counted, and the subsequent ELISPOTs and LDH were detected.
The ELISPOT method is an enzyme-linked immunospot assay, which can detect the cytokines secreted by a single cell. In the assay, the culture plate was coated with specific monoclonal antibodies, and then the cells to be detected and antigenic stimulant were added for culture. Under the stimulation of the stimulant, the corresponding cytokines were secreted by the T cells, and the secreted cytokines were captured by the antibodies coated on the culture plate. After washing away the cells, the captured cytokines were bonded to […] secondary antibodies to form spots. […]
With reference to the specification in the ELISPOT kit, the cells cultured in Example 4, T2 cells loaded with testing polypeptide ([…], SEQ ID NO: 2), and T2 cells loaded with irrelevant polypeptide (referring to a polypeptide not stimulating T cells to secrete IFN-gamma interferon and having a specific sequence of […], the irrelevant polypeptide used in the following examples also refers to this sequence) were added respectively to the ELISPOT plate for cultivation, and ELISPOTs were detected after 20 hours (see the specification of the ELISPOT kit). […]

[5] = system: T2 cells; assay: LDH release assay of polypeptide-specific killing activity of CD8+ T cells; assay type: cell-based; settings: triplicate wells
Experimental: as §4
LDH is an enzyme present in the cytoplasm. LDH will be released into the culture medium when the cell membrane is damaged. Since the released LDH is stable, the measured amount of LDH in the medium can be used as an indicator to measure the number of dead and damaged cells.
The cells cultured in Example 4 were co-cultured with the T2 cells loaded with the testing polypeptide or the irrelevant polypeptide or no polypeptide. In the assay, maximum release wells, volume correction wells, medium control wells, spontaneous release wells, different effect-target ratios (the ratio of the number of T cells to the number of T2 cells) were set, triplicated wells for each group. After 4 hours, 50 μl of the co-cultured cell supernatant was taken and added to 50 μl of LDH substrate mixture, allowing the cell supernatant to catalyze the LDH substrate reaction, finally reading at the wavelength of 490 nm and the reference wavelength of 680 nm. Based on the control wells, the killing activity of […] killing T2 cells was calculated. The greater the value shown in Table 4, the stronger the killing effect.

[6] = target: T1, MHC I molecules on the surfaces of T2 cells (HLA-A*11:01) (Homo sapiens, UniProt P04439, A114D/D185E/E176A/F33Y/L180Q/S129P/T187R); assay: Verification of affinity of polypeptide with T2 cells (flow cytometry, fluorescence index); assay type: cell-based
T1 construct: endogenous in cells; host or cells: T2 cells
Text: T2 cells are a necessary antigen polypeptide transporter-deficient cell line in the endogenous antigen presentation pathway, and can be used to study the strength of the mutual recognition with MHC molecules in the antigen presentation process.
In order to verify the affinity of exogenous polypeptides with T2 cells, a polypeptide that had been confirmed to have strong affinity with T2 cells was used as positive control, and T2 cells without adding polypeptides were used as background control. […] Based on this, the affinity of the polypeptide with T2 cells is determined. The higher the FI value, the stronger the affinity of the polypeptide with T2 cells, which is conducive to the subsequent recognition of specific CD8^+ T cells.
The synthesized polypeptides were added to 2*10^5 T2 cells, and human β2 micro-globulin (with a final concentration of 3 μg/ml) was added and cultivated in 24-well plate. The plate was cultured in an incubator (37° C., 5% CO2) overnight. […] (SEQ ID NO: 9), which is a viral peptide and is also a known polypeptide with strong affinity with T2 cells, was used as a positive control, duplicate wells for each experiment, and the average value was calculated.
[…] for 5 minutes to collect the cells. […] The mean fluorescence intensity was then detected and analyzed by a flow cytometer (BD FACSJazz™) and its software, see FIG. 2.

## RHGGWTTK (Mutant polypeptide)
[1]
  Mouse tumor growth (tumor volume), polypeptide vaccine: can significantly slow down the mouse tumor growth
[2]
  Mouse tumor growth (tumor volume), DC-CTL vaccine: can significantly slow down the mouse tumor growth
[3]
  Mouse tumor growth (tumor volume), polypeptide-loaded DC vaccine: can significantly slow down the mouse tumor growth
[4]; IFN-gamma ELISPOT, T2 cells loaded with irrelevant polypeptide LSYRNKPSI, 20 hours
  Number of spots produced by using irrelevant polypeptide as stimulant: 11
[4]; IFN-gamma ELISPOT, T2 cells loaded with testing polypeptide, 20 hours
  Number of spots produced by using testing polypeptide as stimulant: 104
[4]; ratio of spot numbers, >=2 regarded as having immunogenicity
  Multiple (testing/irrelevant): 9
[5]; E:T = 1:1, 4 hours
  Killing activity, T + T2 (loaded with no polypeptide): 0.322 and 0.279 and 0.298
  Killing activity, T + T2 + irrelevant polypeptide: 0.278 and 0.293 and 0.308
  Killing activity, T + T2 + testing polypeptide: 0.324 and 0.351
[5]; E:T = 10:1, 4 hours
  Killing activity, T + T2 (loaded with no polypeptide): 0.413 and 0.352 and 0.364
  Killing activity, T + T2 + irrelevant polypeptide: 0.436 and 0.371 and 0.407
  Killing activity, T + T2 + testing polypeptide: 0.406 and 0.397 and 0.414
[6]; compared with the positive control
  Conclusion (T2 cell affinity): High affinity
[6]; fluorescence index, T2 cells, overnight, FITC anti-HLA-A*11:01 antibody, flow cytometry
  FI: 2.12
